Test results published in patent US20260176320A1, “MODULATORS OF G-PROTEIN COUPLED RECEPTORS” (priority 2018, published 2026).
pEC50: −log10 of the molar value. Like-named read-outs stand apart in the source and are kept apart here. Square brackets hold non-standard residues; d marks the D form. Peptide text beside a SMILES is read from it. * marks the point of attachment. X1 = O=C(CSCC(=O)*)NCCN1C(=O)c2ccccc2C1=O; Aib = CC(C)(N)C(=O)O

Legend:
Format in all cases: cell-based
GIP-R = target: T1, GIP-R (Homo sapiens, UniProt P48546); experiment: HitHunter cAMP assay (GIP-R); conditions: cAMP; for Emax: read-out: (Emax) GIP-R
T1 sequence (P48546 22-466): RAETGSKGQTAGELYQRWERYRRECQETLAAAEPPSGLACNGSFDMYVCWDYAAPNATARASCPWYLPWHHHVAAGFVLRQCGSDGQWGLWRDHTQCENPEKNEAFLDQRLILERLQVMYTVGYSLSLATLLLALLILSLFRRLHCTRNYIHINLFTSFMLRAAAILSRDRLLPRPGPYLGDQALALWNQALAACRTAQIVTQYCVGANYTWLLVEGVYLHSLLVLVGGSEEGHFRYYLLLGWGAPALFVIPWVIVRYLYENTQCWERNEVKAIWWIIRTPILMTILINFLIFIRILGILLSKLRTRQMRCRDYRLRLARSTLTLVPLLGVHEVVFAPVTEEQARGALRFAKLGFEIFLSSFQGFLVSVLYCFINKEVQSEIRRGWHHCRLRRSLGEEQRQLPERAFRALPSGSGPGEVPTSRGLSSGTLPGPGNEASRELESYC
Outline: (§1)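 cAMP accumulation read by luminescent HitHunter immunocompetition after 30 min room-temperature agonist stimulation. Agonists tested as 22-point twofold dilutions, in duplicate, on 10,000 cells/well in HBSS containing 625 μM IBMX, 10 mM HEPES and 0.2% BSA.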

GLP-1R [1] = target: T2, GLP-1R (Homo sapiens, UniProt P43220); experiment: HitHunter cAMP assay (GLP-1R); conditions: cAMP; for Emax: read-out: (Emax) GLP-1R
T2 sequence (P43220 24-463): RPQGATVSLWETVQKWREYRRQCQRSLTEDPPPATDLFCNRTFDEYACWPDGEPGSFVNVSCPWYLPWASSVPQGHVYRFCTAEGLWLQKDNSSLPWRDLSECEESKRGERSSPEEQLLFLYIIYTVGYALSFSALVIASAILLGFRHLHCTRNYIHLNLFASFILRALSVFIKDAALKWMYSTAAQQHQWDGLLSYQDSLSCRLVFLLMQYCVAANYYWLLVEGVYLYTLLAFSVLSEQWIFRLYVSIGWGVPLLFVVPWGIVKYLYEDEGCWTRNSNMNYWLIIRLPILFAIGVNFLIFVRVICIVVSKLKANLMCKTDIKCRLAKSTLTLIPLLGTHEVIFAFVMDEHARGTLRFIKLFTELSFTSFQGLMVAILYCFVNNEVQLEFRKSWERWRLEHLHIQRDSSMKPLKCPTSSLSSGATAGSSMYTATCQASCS
Outline: as §1

GLP-1R [2] = target: T2, GLP-1R; experiment: PathHunter β-arrestin assay
Method: The effects of the chemical entities described herein on β-arrestin signaling and associated downstream processes (e.g., those delineated above) can be assessed using conventional methods, e.g., PathHunter β-arrestin Assay for determining β-arresting coupling (see Examples section). […] It has been shown that b-arrestin coupling is a key strep in receptor internalization and subsequent de-sensitization and attenuation of signaling.
5,000 cells were seeded in appropriate cell culture media per well in a low volume 384-well tissue culture plate. The assay plate was incubated with cells overnight at 37° C. and 5% CO2. The media was removed, and 5 μL of appropriate cell culture media containing 0.2% BSA was added. Agonist serial dilutions in a separate 384 well dilution plate in a 22-point series of 2× dilutions of agonist in DMSO were performed as follows. 80 μL of the highest concentration of Agonist/DMSO was added to well No. 1. 40 μL was removed from well No. 1, and added to well No. 2, followed by gentle mixing. […] This process was repeated until well No. 22. Additional serial dilutions for additional agonists were set up in a similar manner. 100 nL of each 2× agonist serial dilution was added in duplicate to the designated agonist rows of the assay plate using the Labcyte ECHO. Assay plate was incubated for 90 minutes at 37° C. and 5% CO2. A stock of Working Detection Solution in a separate 15 ml polypropylene tube was prepared by mixing 19 parts of Cell Assay Buffer, 5 parts of Substrate Reagent 1, 1 part Substrate Reagent 2. […] Plates were spun down briefly. Assay plate was incubated for 3 hour at room temperature in the dark for the immunocompetition reaction to occur. Samples were read on Tecan i-control plate reader using luminescence mode with 100 ms integration time. Data analysis was performed using GraphPad Prism.

Row | Structure (SMILES) | EC50 (GIP-R; EC50 GIP-R/nM, Table 3) [nM] | EC50 (GIP-R; EC50 GIP-R/nM, Table 3A) [nM] | Emax (GIP-R; Table 3) [%] | Emax (GIP-R; Table 3A) [%] | EC50 (GLP-1R [1]; EC50 GLP-1R/nM, Table 3) [nM] | EC50 (GLP-1R [1]; EC50 GLP-1R/nM, Table 3A) [nM] | Emax (GLP-1R [1]; Table 3) [%] | Emax (GLP-1R [1]; Table 3A) [%] | pEC50 (GLP-1R [2]) | EC50 (GIP-R; Table 3, read-out: EC50 GIP-R/nM) [nM] | EC50 (GIP-R; Table 3A, read-out: EC50 GIP-R/nM) [nM] | EC50 (GLP-1R [1]; Table 3, read-out: EC50 GLP-1R/nM) [nM] | EC50 (GLP-1R [1]; Table 3A, read-out: EC50 GLP-1R/nM) [nM] | pEC50 (GLP-1R [2]; PathHunter β-arrestin assay, read-out: β-arrestin activity EC50) | EC50 (GIP-R; read-out: EC50 GIP-R/nM, Table 3A) [nM]
1 | CC[C@H](C)[C@H](NC(=O)[C@H](CO)NC(=O)[C@H](Cc1ccc(O)cc1)NC(=O)[C@H](CC(=O)O)NC(=O)[C@H](CO)NC(=O)[C@@H](NC(=O)[C@H](Cc1ccccc1)NC(=O)[C@@H](NC(=O)CNC(=O)[C@H](CCC(=O)O)NC(=O)CSCC(=O)NCCN1C(=O)c2ccccc2C1=O)[C@@H](C)O)[C@@H](C)O)C(=O)N[C@@H](Cc1ccc(O)cc1)C(=O)N[C@@H](CC(C)C)C(=O)N[C@@H](CC(=O)O)C(=O)N[C@@H](CCCCN)C(=O)N[C@@H](CCC(N)=O)C(=O)N[C@@H](C)C(=O)N[C@@H](C)C(=O)NC(C)(C)C(=O)N[C@@H](CCC(=O)O)C(=O)N[C@@H](Cc1ccccc1)C(=O)N[C@H](C(=O)N[C@@H](CC(N)=O)C(=O)N[C@@H](Cc1c[nH]c2ccccc12)C(=O)N[C@@H](CC(C)C)C(=O)N[C@@H](CC(C)C)C(=O)N[C@@H](C)C(=O)NCC(=O)NCC(=O)N1CCC[C@H]1C(=O)N[C@@H](CO)C(=O)N[C@@H](CO)C(=O)NCC(=O)N[C@@H](C)C(=O)N1CCC[C@H]1C(=O)N1CCC[C@H]1C(=O)N1CCC[C@H]1C(=O)N[C@@H](CO)C(=O)N[C@@H](CCCCN)C(N)=O)[C@@H](C)CC [Compound 144] (X1-EGTFTSDYSIYLDKQAA[Aib]EFINWLLAGGPSSGAPPPSK-NH2) | < 0.1 | < 0.1 | 127 to 140 | 127 to 140 | 1 to 10 | 1 to 10 | 93 to 119 | 93 to 119 | < 6.00 |  |  |  |  |  | 
2 | CCCCCCCCCCCCCCCC(=O)N[C@@H](CCC(=O)NCCCC[C@H](NC(=O)[C@H](CO)NC(=O)[C@@H]1CCCN1C(=O)[C@@H]1CCCN1C(=O)[C@@H]1CCCN1C(=O)[C@H](C)NC(=O)CNC(=O)[C@H](CO)NC(=O)[C@H](CO)NC(=O)[C@@H]1CCCN1C(=O)CNC(=O)CNC(=O)[C@H](C)NC(=O)[C@H](CC(C)C)NC(=O)[C@H](CC(C)C)NC(=O)[C@H](Cc1c[nH]c2ccccc12)NC(=O)[C@H](CC(N)=O)NC(=O)[C@@H](NC(=O)[C@H](Cc1ccccc1)NC(=O)[C@H](CCC(=O)O)NC(=O)C(C)(C)NC(=O)[C@H](C)NC(=O)[C@H](C)NC(=O)[C@H](CCC(N)=O)NC(=O)[C@H](CCCCN)NC(=O)[C@H](CC(=O)O)NC(=O)[C@H](CC(C)C)NC(=O)[C@H](Cc1ccc(O)cc1)NC(=O)[C@@H](NC(=O)[C@H](CO)NC(=O)[C@H](Cc1ccc(O)cc1)NC(=O)[C@H](CC(=O)O)NC(=O)[C@H](CO)NC(=O)[C@@H](NC(=O)[C@H](Cc1ccccc1)NC(=O)[C@@H](NC(=O)CNC(=O)[C@H](CCC(=O)O)NC(=O)CSCC(=O)NCCN1CCCC(C)(C)C1=O)[C@@H](C)O)[C@@H](C)O)[C@@H](C)CC)C(C)C)C(N)=O)C(=O)O [Compound 10] | 1 to 10 | 1 to 10 | 32 | 32 | 0.1 to 1 | 0.1 to 1 | 95 | 95 | < 6.00 |  |  |  |  |  | 
3 | CC[C@H](C)[C@H](NC(=O)[C@H](CO)NC(=O)[C@H](Cc1ccc(O)cc1)NC(=O)[C@H](CC(=O)O)NC(=O)[C@H](CO)NC(=O)[C@@H](NC(=O)[C@H](Cc1ccccc1)NC(=O)[C@@H](NC(=O)CNC(=O)[C@H](CCC(=O)O)NC(=O)CSCC(=O)NCCN1C(=O)c2cc3ccccc3cc2C1=O)[C@@H](C)O)[C@@H](C)O)C(=O)N[C@@H](Cc1ccc(O)cc1)C(=O)N[C@@H](CC(C)C)C(=O)N[C@@H](CC(=O)O)C(=O)N[C@@H](CCCCN)C(=O)N[C@@H](CCC(N)=O)C(=O)N[C@@H](C)C(=O)N[C@@H](C)C(=O)NC(C)(C)C(=O)N[C@@H](CCC(=O)O)C(=O)N[C@@H](Cc1ccccc1)C(=O)N[C@H](C(=O)N[C@@H](CC(N)=O)C(=O)N[C@@H](Cc1c[nH]c2ccccc12)C(=O)N[C@@H](CC(C)C)C(=O)N[C@@H](CC(C)C)C(=O)N[C@@H](C)C(=O)NCC(=O)NCC(=O)N1CCC[C@H]1C(=O)N[C@@H](CO)C(=O)N[C@@H](CO)C(=O)NCC(=O)N[C@@H](C)C(=O)N1CCC[C@H]1C(=O)N1CCC[C@H]1C(=O)N1CCC[C@H]1C(=O)N[C@@H](CO)C(=O)N[C@@H](CCCCN)C(N)=O)C(C)C [Compound 163] | < 0.1 | < 0.1 | 106 | 106 | 10 to 100 | 10 to 100 | 73 | 73 | < 6.00 |  |  |  |  |  | 
4 | CCCCCCCCCCCCCCCC(=O)N[C@@H](CCC(=O)NCCCC[C@H](NC(=O)[C@H](CO)NC(=O)[C@@H]1CCCN1C(=O)[C@@H]1CCCN1C(=O)[C@@H]1CCCN1C(=O)[C@H](C)NC(=O)CNC(=O)[C@H](CO)NC(=O)[C@H](CO)NC(=O)[C@@H]1CCCN1C(=O)CNC(=O)CNC(=O)[C@H](C)NC(=O)[C@H](CC(C)C)NC(=O)[C@H](CC(C)C)NC(=O)[C@H](Cc1c[nH]c2ccccc12)NC(=O)[C@H](CC(N)=O)NC(=O)[C@@H](NC(=O)[C@H](Cc1ccccc1)NC(=O)[C@H](CCC(=O)O)NC(=O)C(C)(C)NC(=O)[C@H](C)NC(=O)[C@H](C)NC(=O)[C@H](CCC(N)=O)NC(=O)[C@H](CCCCN)NC(=O)[C@H](CC(=O)O)NC(=O)[C@H](CC(C)C)NC(=O)[C@H](Cc1ccc(O)cc1)NC(=O)[C@@H](NC(=O)[C@H](CO)NC(=O)[C@H](Cc1ccc(O)cc1)NC(=O)[C@H](CC(=O)O)NC(=O)[C@H](CO)NC(=O)[C@@H](NC(=O)[C@H](Cc1ccccc1)NC(=O)[C@@H](NC(=O)CNC(=O)[C@H](CCC(=O)O)NC(=O)CSCC(=O)NCCN1CCNCC1=O)[C@@H](C)O)[C@@H](C)O)[C@@H](C)CC)C(C)C)C(N)=O)C(=O)O [Compound 33] |  |  | 43 | 43 |  |  | 100 | 100 |  | 10 to 100 | 10 to 100 | 0.1 to 1 | 0.1 to 1 | < 6.00 | 
5 | CCCCCCCCCCCCCCCC(=O)N[C@@H](CCC(=O)NCCCC[C@H](NC(=O)[C@H](CO)NC(=O)[C@@H]1CCCN1C(=O)[C@@H]1CCCN1C(=O)[C@@H]1CCCN1C(=O)[C@H](C)NC(=O)CNC(=O)[C@H](CO)NC(=O)[C@H](CO)NC(=O)[C@@H]1CCCN1C(=O)CNC(=O)CNC(=O)[C@H](C)NC(=O)[C@H](CC(C)C)NC(=O)[C@H](CC(C)C)NC(=O)[C@H](Cc1c[nH]c2ccccc12)NC(=O)[C@H](CC(N)=O)NC(=O)[C@@H](NC(=O)[C@H](Cc1ccccc1)NC(=O)[C@H](CCC(=O)O)NC(=O)C(C)(C)NC(=O)[C@H](C)NC(=O)[C@H](C)NC(=O)[C@H](CCC(N)=O)NC(=O)[C@H](CCCCN)NC(=O)[C@H](CC(=O)O)NC(=O)[C@H](CC(C)C)NC(=O)[C@H](Cc1ccc(O)cc1)NC(=O)[C@@H](NC(=O)[C@H](CO)NC(=O)[C@H](Cc1ccc(O)cc1)NC(=O)[C@H](CC(=O)O)NC(=O)[C@H](CO)NC(=O)[C@@H](NC(=O)[C@H](Cc1ccccc1)NC(=O)[C@@H](NC(=O)CNC(=O)[C@H](CCC(=O)O)NC(=O)CSCC(=O)NCCN1CCC(C)(C)C1=O)[C@@H](C)O)[C@@H](C)O)[C@@H](C)CC)C(C)C)C(N)=O)C(=O)O [Compound 35] | 1 to 10 |  | 20 to 37 | 20 to 37 | 0.1 to 1 | 0.1 to 1 | 110 | 110 | < 6.00 |  |  |  |  |  | 1 to 100
